In patent US20110269721A1, “METHODS OF TREATING THALASSEMIA” (TargeGen, Inc., priority 2008, published 2011):

Legend:
[1] = tested on: purified erythroid cells isolated from the spleens of normal and thalassemic mice; experiment: Primary splenic erythroid cell cultures with CFSE staining (cell proliferation); format: cell-based, mouse; conditions: for CFSE FACS profile versus untreated cells: erythroid cells from wt mice, FIG. 2A legend, n=4 per genotype; for effect on cell proliferation of erythroid cultures (CFSE): erythroid cultures from thalassemic mice, AG490 100 uM, FIG. 2A; for total cell number as % of the initial cell numbers: 48 h in culture with Epo, with colcemid, n=4
Protocol: Spleens from […] were harvested and mechanically dissociated into single cell suspensions. Murine mononuclear cells were then isolated by centrifugation using Lympholyte-M density gradients (Cedarlane Laboratories Ltd, Westbury, N.Y.) following the manufacturer's instructions. Cells were incubated on ice for 15 minutes with a cocktail containing 10 μg each of non-erythroid FITCconjugated antibodies (GR-1, MAC1, CD4, CD8, CD11b, and CD49) (BD PharMingen). After washing, the cells were incubated for 15 minutes at 4° C. with anti-FITC microbeads (Miltenyi Biotech, Auburn, Calif.). The cell suspension was placed on a magnetic column and the eluted erythroid cells were kept for RNA extraction, protein analysis, in vitro culture with carboxy-fluorescein diacetate succinimidyl ester (CFSE; MolecularProbes, Eugene, Oreg.) staining or flow cytometric analysis. CFSE was added to the cells to give a final concentration of 1.25 uM. After 10 minutes at 37° C., further dye uptake was prevented by addition of 5 volumes of cold medium and incubated in ice for 5 minutes. The cells were then washed three times and seeded at 1×10^7 cells/ml in IMDM with 30% FBS (Hyclone, South Logan, Utah 84321), 1% deionized BSA, 100 IU/ml of penicillin, 100 ug/mL of streptomycin (Mediatech, Manassas, Va.), […] beta-thioglycerol (mTG; Sigma-Aldrich), and […] rHuEpo (10 U/ml; Amgen Mfg. Ltd. Thousand Oaks, Calif.). […] In order to visualize cell division, the cultured erythroid cells were stained with CFSE. Once the dye is inside the cell, it binds to cytoskeletal proteins and is divided equally between daughter cells. Thus, it is possible to determine if cells are dividing by monitoring the reduction of CFSE fluorescence (FIG. 2A).

[2] = tested on: normal and thalassemic mice; experiment: In vivo administration of Jak2 inhibitor to normal and thalassemic mice; set-up: species or system mouse
Excerpt: Mouse models that mimic beta-thalassemia intermedia (th3/+) and major (th3/th3) were used. (Rivella, S. et al, A novel murine model of Cooley anemia and its rescue by lentiviral mediated human beta globin gene transfer. Blood (2003) 101: 2932-2939, hereby incorporated by reference.) In th3/+ mice both the betaminor and betamajor gens have been deleted from one chromosome. Mice completely lacking adult beta-globin (th3/th3) die late in gestation. To circumvent this problem, bone marrow transplantation is conducted wherein hematopoietic fetal liver cells (HFLCs) were harvested from th3/th3 embryos at embryonic day 14.5 (E14.5) and injected into lethally irradiated syngeneic wild-type (wt) adult recipients.
Compound A, a Jak2 inhibitor, was administered to cohorts of normal and thalassemic mice of different ages. […] These observations indicate that the main role of pJak2 is to propel the erythropoietic drive.

Row | Compound | CFSE FACS profile versus untreated cells [1] | effect on cell proliferation of erythroid cultures (CFSE) [1] | spleen size ([2]; 6- and 12-week old thalassemic mice, 10 and 18 days of treatment) | Hb levels ([2]; thalassemic mice, 10 and 18 days of treatment) | erythropoiesis and size of the spleen ([2]; young normal animals) | total cell number as % of the initial cell numbers ([1]; th3/+ erythroid cells) | total cell number as % of the initial cell numbers ([1]; th3/th3 erythroid cells) | total cell number as % of the initial cell numbers ([1]; wt erythroid cells)
1 | N#C/C(=C/c1ccc(O)c(O)c1)C(=O)NCc1ccccc1 [AG490] | little difference from untreated cells | blocking cell proliferation |  |  |  |  |  | 
2 | Cc1cnc(Nc2ccc(N3CCN(C)CC3)cc2)nc1Nc1cccc(S(=O)(=O)NC(C)(C)C)c1 [compound A] |  | blocking cell proliferation | dramatically reduced | decreasing Hb levels | affected both erythropoiesis and the size of the spleen |  |  | 
3 | CN[C@H]1CCc2cc(OC)c(OC)c(OC)c2-c2ccc(OC)c(=O)cc21 [colcemid] | little difference from untreated cells |  |  |  |  | 88±18% | 72±25% | 46±9%
